Assay results as given in patent US20220363665A1, “QUINOLINE COMPOUNDS FOR THE TREATMENT OF AUTOIMMUNE DISEASE” (Hoffmann-La Roche Inc., priority 2019, published 2022).
pIC50: −log10 of the molar value. ≈ marks a conversion by molar mass, not a printed value.

Key:
human TLR9 = target: T1, human TLR9 (Homo sapiens, UniProt Q9NR96); assay: HEK293-Blue-hTLR-9 cells assay (SEAP reporter, ODN2006 stimulation); type: cell-based; conditions: HEK293-Blue-hTLR9 cells, ODN2006, 20 hrs
T1 construct: host or cells: HEK293 (HEK-Blue hTLR9)
T1 sequence (Q9NR96 26-1032): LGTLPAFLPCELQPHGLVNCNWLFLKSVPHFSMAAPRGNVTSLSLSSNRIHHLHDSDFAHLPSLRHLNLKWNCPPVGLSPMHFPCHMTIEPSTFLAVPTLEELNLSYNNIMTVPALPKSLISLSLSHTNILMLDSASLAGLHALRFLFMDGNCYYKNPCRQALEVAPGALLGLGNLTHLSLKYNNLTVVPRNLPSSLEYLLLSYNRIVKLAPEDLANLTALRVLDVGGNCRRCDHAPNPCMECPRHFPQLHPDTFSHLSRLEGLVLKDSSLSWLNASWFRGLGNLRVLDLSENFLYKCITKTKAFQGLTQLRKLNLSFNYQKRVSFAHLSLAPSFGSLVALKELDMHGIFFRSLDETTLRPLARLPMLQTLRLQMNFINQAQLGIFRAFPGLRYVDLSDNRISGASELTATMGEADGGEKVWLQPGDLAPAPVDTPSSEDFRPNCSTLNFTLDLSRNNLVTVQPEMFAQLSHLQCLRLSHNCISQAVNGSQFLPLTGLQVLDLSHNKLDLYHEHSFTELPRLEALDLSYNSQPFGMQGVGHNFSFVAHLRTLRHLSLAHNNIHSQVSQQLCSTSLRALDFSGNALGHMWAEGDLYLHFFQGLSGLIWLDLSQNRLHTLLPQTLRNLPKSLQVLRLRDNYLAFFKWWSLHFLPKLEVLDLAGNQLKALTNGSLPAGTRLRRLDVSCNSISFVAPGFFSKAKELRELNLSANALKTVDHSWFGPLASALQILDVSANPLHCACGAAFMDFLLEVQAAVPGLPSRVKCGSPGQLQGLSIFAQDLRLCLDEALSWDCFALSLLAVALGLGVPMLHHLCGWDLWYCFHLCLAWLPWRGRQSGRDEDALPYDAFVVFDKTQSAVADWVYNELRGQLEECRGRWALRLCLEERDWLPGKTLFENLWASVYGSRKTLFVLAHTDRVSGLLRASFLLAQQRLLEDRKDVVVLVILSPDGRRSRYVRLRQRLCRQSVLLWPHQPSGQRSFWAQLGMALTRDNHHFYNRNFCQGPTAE
Procedure: The following tests were carried out in order to determine the activity of the compounds of formula (I) in HEK293-Blue-hTLR-7/8/9 cells assay.
HEK293-Blue-hTLR-9 Cells Assay:
A stable HEK293-Blue-hTLR-9 cell line was purchased from InvivoGen (Cat. #. hkb-htlr9, San Diego, Calif., USA). These cells were originally designed for studying the stimulation of human TLR9 by monitoring the activation of NF-κB. A SEAP (secreted embryonic alkaline phosphatase) reporter gene was placed under the control of the […] minimal promoter fused to five NF-κB and AP-1-binding sites. The SEAP was induced by activating NF-κB and AP-1 via stimulating HEK-Blue hTLR9 cells with TLR9 ligands. Therefore the reporter expression was declined by TLR9 antagonist under the stimulation of a ligand, such as ODN2006 (Cat. #: tlrl-2006-1, Invivogen, San Diego, Calif., USA), for incubation of 20 hrs. The cell culture supernatant SEAP reporter activity was determined using QUANTI-Blue™ kit (Cat. #: rep-qbl, Invivogen, San Diego, Calif., USA) at a wavelength of 640 nm, a detection medium that turns purple or blue in the presence of alkaline phosphatase.
HEK293-Blue-hTLR9 cells were incubated at a density of […] cells/mL in a volume of 170 μL, in a 96-well plate in Dulbecco's Modified Eagle's medium (DMEM) containing 4.5 g/L glucose, 50 U/mL penicillin, […], […], 2 mM L-glutamine, 10% (v/v) heat-inactivated fetal bovine serum with addition of 20 μL test compound in a serial dilution in the presence of final DMSO at 1% and 10 μL of 20 uM ODN2006 in above DMEM, perform incubation under 37° C. in a CO2 incubator for 20 hrs. Then 20 μL of the supernatant from each well was incubated with 180 μL Quanti-blue substrate solution at 37° C. for 2 hrs and the absorbance was read at 620˜655 nm using a spectrophotometer. The signalling pathway that TLR9 activation leads to downstream NF-κB activation has been widely accepted, and therefore similar reporter assay was modified for evaluating TLR9 antagonist.

LYSA solubility assay = type: physicochemical; conditions: for solubility thermodynamic: thermodynamic from solid
Procedure: LYSA study is used to determine the aqueous solubility of tested compounds. Samples are prepared in duplicate from 10 mM DMSO stock solution. After evaporation of DMSO with a centrifugal vacuum evaporator, compounds are dissolved in a 0.05 M phosphate buffer (pH 6.5), stirred for one hr and shaken for two hrs. After one night, the solutions are filtered using a microtiter filter plate. Then the filtrate and its 1/10 dilution are analyzed by HPLC-UV. In addition, a four-point calibration curve is prepared from the 10 mM stock solutions and used for the solubility determination of the compounds. The results are in μg/mL. In case the percentage of sample measured in solution after evaporation divided by the calculated maximum of sample amount is bigger than 80%, the solubility is reported as bigger than this value.

[1] = 0.05 M phosphate buffer, pH 6.5, aqueous buffer
[2] = 0.05 M phosphate buffer (pH 6.5)

Row | Structure (SMILES) | pIC50 (human TLR9) | solubility thermodynamic (LYSA solubility assay; [1]) [µg/mL] | solubility thermodynamic (LYSA solubility assay; aqueous buffer, 0.05 M phosphate buffer (pH 6.5)) [µg/mL] | LYSA (LYSA solubility assay; [2]) [µg/mL]
1 | C[C@@H]1CN(c2ccc(C(F)(F)F)c3ncccc23)C[C@H](C(=O)NC2CC3COCC(C2)N3)O1 (stereo partly drawn) [Example 33, (2R,6R)-6-methyl-N-(3-oxa-9-azabicyclo[3.3.1]nonan-7-yl)-4-[8-(trifluoromethyl)-5-quinolyl]morpholine-2-carboxamide] | 4.63 | 350 (≈ 754 µM) | – | –
2 | C[C@@H]1CN(c2ccc(C(F)(F)F)c3ncccc23)C[C@H](C(=O)NCC2CNCC2(F)F)O1 (stereo partly drawn) [Example 29, (2R,6R)-N-[(4,4-difluoropyrrolidin-3-yl)methyl]-6-methyl-4-[8-(trifluoromethyl)-5-quinolyl]morpholine-2-carboxamide] | < 4.00 | 565 (≈ 1230 µM) | – | –
3 | C[C@@H]1CN(c2ccc(C(F)(F)F)c3ncccc23)C[C@H](C(=O)NCC2COCCN2C)O1 (stereo partly drawn) [Example 11, (2R,6R)-6-methyl-N-[(4-methylmorpholin-3-yl)methyl]-4-[8-(trifluoromethyl)-5-quinolyl]morpholine-2-carboxamide] | < 4.00 | > 740 | – | –
4 | C[C@@H]1CN(c2ccc(Br)c3ncccc23)C[C@H](C(=O)NC2CNCC2F)O1 (stereo partly drawn) [Example 41, cis-(2R,6R)-4-(8-bromo-5-quinolyl)-N-[4-fluoropyrrolidin-3-yl]-6-methyl-morpholine-2-carboxamide] | 4.63 | > 675 | – | –
5 | C[C@@H]1CN(c2ccc(C(F)(F)F)c3ncccc23)C[C@H](C(=O)N2CCC3(CCNCC3)CC2)O1 [Example 32, 3,9-diazaspiro[5.5]undecan-3-yl-[(2R,6R)-6-methyl-4-[8-(trifluoromethyl)-5-quinolyl]morpholin-2-yl]methanone] | 5.43 | > 640 | – | –
6 | Cc1ccc(N2C[C@@H](C)O[C@@H](C(=O)N[C@@H]3CNC[C@@H]3F)C2)c2cccnc12 [Example 21, cis-(2R,6R)-N-14-fluoropyrrolidin-3-yl1-6-methyl-4-(8-methyl-5-quinolyl)morpholine-2carboxamide] | 4.42 | > 435 | – | –
7 | C[C@@H]1CN(c2ccc(I)c3ncccc23)C[C@H](C(=O)NC2CNCC2F)O1 (stereo partly drawn) [Example 40, cis-(2R,6R)-N-[4-fluoropyrrolidin-3-yl]-4-(8-iodo-5-quinolyl)-6-methyl-morpholine-2-carboxamide] | 4.65 | 555 (≈ 1150 µM) | – | –
8 | C[C@@H]1CN(c2ccc(C(F)(F)F)c3ncccc23)C[C@H](C(=O)NCC2CN(C)CCO2)O1 (stereo partly drawn) [Example 3, (2R,6R)-6-methyl-N-[(4-methylmorpholin-2-yl)methyl]-4-[8-(trifluoromethyl)-5-quinolyl]morpholine-2-carboxamide] | 4.09 | > 690 | – | –
9 | C[C@@H]1CN(c2ccc(Br)c3ncccc23)C[C@H](C(=O)NC2CCN(C)CC2)O1 [Example 42, (2R,6R)-4-(8-bromo-5-quinolyl)-6-methyl-N-(1-methyl-4-piperidyl)morpholine-2-carboxamide] | 4.97 | > 550 | – | –
10 | C[C@@H]1CN(c2ccc(C(F)(F)F)c3ncccc23)C[C@H](C(=O)NCC2CCCCN2C)O1 (stereo partly drawn) [Example 4, (2R,6R)-6-methyl-N-[(1-methyl-2-piperidyl)methyl]-4-[8-(trifluoromethyl)-5-quinolyl]morpholine-2-carboxamide] | 4.94 | > 660 | – | –
11 | C[C@@H]1CN(c2ccc(C(F)(F)F)c3ncccc23)C[C@H](C(=O)NC2C3CNCC2COC3)O1 (single isomer, unassigned) [Example 46A] | 4.64 | > 650 | – | –
12 | C[C@@H]1CN(c2ccc([N+](=O)[O-])c3ncccc23)C[C@H](C(=O)NCC2CN(C)CCO2)O1 (stereo partly drawn) [Example 18, (2R,6R)-6-methyl-N-[(4-methylmorpholin-2-yl)methyl]-4-(8-nitro-5-quinolyl)morpholine-2-carboxamide] | 4.26 | > 530 | – | –
13 | C[C@@H]1CN(c2ccc(C(F)(F)F)c3ncccc23)C[C@H](C(=O)NC2CN(C)CC23CC3)O1 (stereo partly drawn) [Example 9, (2R,6R)-6-methyl-N-(5-methyl-5-azaspiro[2.4]heptan-7-yl)-4-[8-(trifluoromethyl)-5-quinolyl]morpholine-2-carboxamide] | 4.96 | – | > 685 | –
14 | C[C@@H]1CN(c2ccc([N+](=O)[O-])c3ncccc23)C[C@H](C(=O)NC2CCN(C)CC2)O1 [Example 20, (2R,6R)-6-methyl-N-(1-methyl-4-piperidyl)-4-(8-nitro-5-quinolyl)morpholine-2-carboxamide] | 4.83 | > 515 | – | –
15 | CC(NC(=O)[C@H]1CN(c2ccc(C(F)(F)F)c3ncccc23)C[C@@H](C)O1)C1CN(C)CCO1 (single isomer, unassigned) [Example 35A] | 4.37 | > 600 | – | –
16 | C[C@@H]1CN(c2ccc(C(F)(F)F)c3ncccc23)C[C@H](C(=O)NC2CC3CNCC32)O1 (single isomer, unassigned) [Example 49A] | 4.97 | > 660 | – | –
17 | Cc1ccc(N2C[C@@H](C)C[C@@H](N)C2)c2cccnc12 [Example 15, (3R,5S)-5-methyl-1-(8-methyl-5-quinolyl)piperidin-3-amine] | 4.85 | – | – | –
18 | C[C@@H]1CN(c2ccc(C(F)(F)F)c3ncccc23)C[C@H](C(=O)NC2C3CCCC2CNC3)O1 (stereo partly drawn) [Example 45, (2R,6R)-N-(3-azabicyclo[3.3.1]nonan-9-yl)-6-methyl-4-[8-(trifluoromethyl)-5-quinolyl]morpholine-2-carboxamide] | 4.94 | > 660 | – | –
19 | CC(NC(=O)[C@H]1CN(c2ccc(C(F)(F)F)c3ncccc23)C[C@@H](C)O1)C1CN(C)CCO1 (single isomer, unassigned) [Example 35B] | 4.30 | – | – | >625.0
20 | C[C@@H]1CN(c2ccc(C(F)(F)F)c3ncccc23)C[C@H](C(=O)NC2C3CNCC2COC3)O1 (single isomer, unassigned) [Example 46B] | 4.82 | – | – | >667.0
21 | C[C@@H]1CN(c2ccc(C(F)(F)F)c3ncccc23)C[C@H](C(=O)NC2CC3CCC(C2)N3)O1 (single isomer, unassigned) [Example 47A] | 5.00 | > 620 | – | –
22 | C[C@@H]1CN(c2ccc(C(F)(F)F)c3ncccc23)C[C@H](C(=O)NC2CNCCOC2)O1 (stereo partly drawn) [Example 14, (2R,6R)-6-methyl-N-(1,4-oxazepan-6-yl)-4-[8-(trifluoromethyl)-5-quinolyl]morpholine-2-carboxamide] | 4.53 | > 695 | – | –
